Patent US20250129088A1, “CEREBLON E3 UBIQUITIN LIGASE INHIBITOR” (Gan & Lee Pharmaceuticals Co., Ltd., priority 2022, published 2025)
pIC50: −log10 of the molar value.

System: NCI-H358 cells
Assay: NCI-H358 cell proliferation inhibition, CCK-8
Format: cell-based
Details: Homo sapiens, 96 h, NCI-H358, 4 days
Method: The complete medium required for NCI-H358 cells is RPMI1640 (ATCC, Product number: 30-2001) basal medium containing 10% fetal bovine serum. NCI-H358 cells were seeded in a 96-well plate at a density of 2,800 cells/well, and the next day, different concentrations of the compounds of the present invention were prepared to treat the cells, and the cells were treated for 4 days in a 37° C., 5% CO2 cell culture incubator. Cell viability was detected using a CCK-8 kit (Beyotime, Product number: C0040) according to the manufacturer's instructions. According to the inhibition rate, the GraphPad Prism software was used to calculate the IC50 value of each compound for 4 days, and the results are shown in Table 5.

Row | pIC50 | Structure (SMILES)
1 | 4.77 | COc1cc2ncnc(Nc3ccc(F)c(Cl)c3)c2cc1OCCCN1CCN(CCOCCC(=O)N2CCC3(CCc4cc5c(cc4O3)C(=O)N(C3CCC(=O)NC3=O)C5)CC2)CC1 (stereo not drawn) [PROTAC 17, 3-(1-(3-(2-(4-(3-((4-((3-chloro-4-fluorophenyl)amino)-7-methoxyquinazolin-6-yl)oxy)propyl)piperazin-1-yl)ethoxy)propionyl)-8′-oxo-3′,4′,6′,8′-tetrahydro-7′H-spiro[piperidine-4,2′-pyrano[2,3-f]isoindole]-7′-yl)piperidine-2,6-dione]
2 | 4.37 | COc1cc2ncnc(Nc3ccc(F)c(Cl)c3)c2cc1OCCCN1CCN(CCOCCC(=O)N2CCC3(CC2)COc2cc4c(cc2O3)CN(C2CCC(=O)NC2=O)C4=O)CC1 (stereo not drawn) [PROTAC 18, 3-(1-(3-(2-(4-(3-((4-((3-chloro-4-fluorophenyl)amino)-7-methoxyquinazolin-6-yl)oxy)propyl)piperazin-1-yl)ethoxy)propionyl)-6′-oxo-6′,8′-dihydro-3′H,7′H-spiro[piperidine-4, 2′-[1,4]dioxino[2,3-f]isoindol]-7′-yl)piperidine-2,6-dione]
3 | 4.64 | COc1cc2ncnc(Nc3ccc(F)c(Cl)c3)c2cc1OCCCN1CCN(CCOCCC(=O)N2CCC3(CCc4cc5c(cc4O3)C(=O)N(C3CCC(=O)NC3=O)C5=O)CC2)CC1 (stereo not drawn) [PROTAC 21, 1-(3-(2-(4-(3-((4-((3-chloro-4-fluorophenyl)amino)-7-methoxyquinazolin-6-yl)oxy)propyl)piperazin-1-yl)ethoxy)propionyl)-7′-(2,6-dioxopiperidin-3-yl)-3′,4′-dihydro-6′H-spiro[piperidine-4,2′-pyrano[2,3-f]isoindole]-6′,8′(7′H)-dione]
4 | 4.28 | COc1cc2ncnc(Nc3ccc(F)c(Cl)c3)c2cc1OCCCN1CCN(CCOCCC(=O)N2CCC3(CC2)COc2cc4c(cc2C3)C(=O)N(C2CCC(=O)NC2=O)C4=O)CC1 (stereo not drawn) [PROTAC 22, 1-(3-(2-(4-(3-((4-((3-chloro-4-fluorophenyl)amino)-7-methoxyquinazolin-6-yl)oxy)propyl)piperazin-1-yl)ethoxy)propionyl)-7′-(2,6-dioxopiperidin-3-yl)-2′H-spiro[piperidine-4,3′-pyrano[2,3-f]isoindole]-6′,8′(4′H,7′H)-dione]
5 | 4.15 | COc1cc2ncnc(Nc3ccc(F)c(Cl)c3)c2cc1OCCCN1CCN(CCOCCC(=O)N2CC3(CCc4cc5c(cc4O3)C(=O)N(C3CCC(=O)NC3=O)C5=O)C2)CC1 (stereo not drawn) [PROTAC 23, 1-(3-(2-(4-(3-((4-((3-chloro-4-fluorophenyl)amino)-7-methoxyquinazolin-6-yl)oxy)propyl)piperazin-1-yl)ethoxy)propionyl)-7′-(2,6-dioxopiperidin-3-yl)-3′,4′-dihydro-6′H-spiro[azetidine-3,2′-pyrano[2,3-f]isomdole]-6′,8′(7′H)-dione]
6 | 4.51 | COc1cc2ncnc(Nc3ccc(F)c(Cl)c3)c2cc1OCCCN1CCN(CCOCCC(=O)N2CCC3(CC2)COc2cc4c(cc23)C(=O)N(C2CCC(=O)NC2=O)C4=O)CC1 (stereo not drawn) [PROTAC 24, 1′-(3-(2-(4-(3-((4-((3-chloro-4-fluorophenyl)amino)-7-methoxyquinazolin-6-yl)oxy)propyl)piperazin-1-yl)ethoxy)propionyl)-6-(2,6-dioxopiperidin-3-yl)-6-hydro-2H,5H-spiro[furo[2,3-f]isoindole-3,4′-piperdine]-5,7-dione]
